The source of these data is patent publication US20130261058A1, “ACCELERATION OF WOUND HEALING BY GROWTH HORMONE RELEASING HORMONE AND ITS AGONISTS” (University of Miami, priority 2010, published 2013).

Entries after “also recorded” stand apart in the source; their conditions may differ.

For data set [1], the system named is MEFs. The data set can be described thus: Cell proliferation by Trypan blue exclusion assay in MEFs. It is filed as cell-based, mouse. On the procedure: (§1) The rate of cell proliferation was evaluated by the Trypan blue exclusion assay under inverted microscope. Cell migration was performed by the “scratch” assay as described, exposing cells to the peptides for 18 h (33). For the transwell-based migration assay, MEFs were seeded on 8 μm pore size transwells (Corning) and after 5 days exposure to the peptides at the indicated concentration, cell number was evaluated in the bottom compartment. All in vitro experiments were performed in triplicate and similar results were obtained.
(§2) Subsequently MEFs were subjected to scratch wound migration assays in vitro, following exposure to GHRH and 31-38 at 100 nM. […] A considerable, notwithstanding not significant, stimulation of cell migration, by about 2-fold as compared to the controls, was also evidenced at 500 nM GHRH or 31-38. In order to rule out the possibility that the results of these two migration assays were simply due to the increased proliferation, MEFs were exposed to the peptide analogs and cell proliferation was evaluated.

In the next data set the test system is SV1. The data set can be described thus: Immunoblot analysis of SV1 expression in MEFs. The data set is classed as cell-based, mouse. The settings on record: 500 nM, 24 h. The method, then:
hGHRH(1-29)NH2 was obtained from Sigma. Agonist JI-38 was synthesized as reported (24, 26). The peptides were dissolved in phosphate buffered saline (PBS) at the indicated concentrations. Controls contained solvent alone. Fibroblasts were isolated using standard methods and maintained in Dulbecco's Modified Eagle Medium containing 10% FBS and antibiotics/antimycotics. For all experiments, primary fibroblasts of less than 10 passages old were used. For Western blot analysis, antibodies for αSMA, FAK and actin were obtained from Sigma while for SV1; the antibody 2317/5 was used (35). The same antibody was also used for the immunohistochemistry as previously described (36). Histology was performed on standard 5 μm sections of paraffin embedded material stained with hematoxylin/eosin. βGal-staining was performed in lung fibroblasts, isolated from transgenic mice bearing an αSMA-beta galactosidase reporter transgene. After treatment with the peptides for 24 hours, cells were washed (three times each for 5 min) with 0.1M PBS (pH 7.4), and fixed with 0.05% glutaraldehyde in PBS, for 10 min at room temperature. […]
It was evaluated whether MEFs express the receptor for GHRH SV1. Primary MEFs were exposed to GHRH and agonistic GHRH analog JI-38 (24, 26) at 100 nM and 500 nM for 24 h and SV1 expression was then assessed by immunoblot analysis.
On the technique in general: Immunoblotting shows a protein as a band on a membrane.

Data set [2] deals with MEFs. Nature of the data set: Transwell-based migration assay (8 μm pore) of MEFs. The data set is classed as cell-based, mouse. The settings on record: for increase of migration through 8 μm-pore transwells compared to controls / stimulation of cell migration through transwells compared to controls: 5 days exposure; for increase of migration through 8 μm-pore transwells compared to controls: p<0.05; for stimulation of cell migration through transwells compared to controls: not significant. On the procedure: as §1, §2

Data set [3] concerns MEFs. Nature of the data set: Scratch wound migration assay of MEFs. The settings on record: 100 nM, 18 h. The data set is classed as cell-based, mouse. On the procedure: as §1, §2
For data set [4], the system named is 4 mm circular skin wounds. The data set can be described thus: Histology, fibroblast counting and Van Gieson staining of 4 mm skin wounds. The data set is classed as in vivo, mice. The settings on record: for content of fibroblasts in wounds (histology) compared to controls: day 5, 100 nM twice daily; for increase of fibroblast density in the wound area: vs controls, direct counting, 100 nM twice daily, p<0.05, FIG. 6. The method, then:
FIG. 6. Quantification of fibroblast content in 4 mm circular skin wounds in mice exposed to GHRH or GHRH agonist JI-38 twice per day at 100 nM on day 5 and 8. Fibroblast number was assessed by direct counting of fibroblast in at least 3 random optic fields in the wound areas under light microscope and expressed relative to the fibroblast content in the controls on day 5. Data are expressed as mean±SEM. *, p<0.05.
(§3) hGHRH(1-29)NH2 was obtained from Sigma. Agonist JI-38 was synthesized as reported (24, 26). The peptides were dissolved in phosphate buffered saline (PBS) at the indicated concentrations. Controls contained solvent alone. Fibroblasts were isolated using standard methods and maintained in Dulbecco's Modified Eagle Medium containing 10% FBS and antibiotics/antimycotics. For all experiments, primary fibroblasts of less than 10 passages old were used. For Western blot analysis, antibodies for αSMA, FAK and actin were obtained from Sigma while for SV1; the antibody 2317/5 was used (35). The same antibody was also used for the immunohistochemistry as previously described (36). Histology was performed on standard 5 μm sections of paraffin embedded material stained with hematoxylin/eosin. βGal-staining was performed in lung fibroblasts, isolated from transgenic mice bearing an αSMA-beta galactosidase reporter transgene. After treatment with the peptides for 24 hours, cells were washed (three times each for 5 min) with 0.1M PBS (pH 7.4), and fixed with 0.05% glutaraldehyde in PBS, for 10 min at room temperature. After three more washes, cells were stained with 1 mg/ml of 5-bromo-4-chloro-3indonyl β-D-galactopyranoside, 5 mM potassium ferrocyanide, 5 mM potassium ferricyanide and 2 mM MgCl2) overnight at 37° C.
(§4) Wild-type mice of mixed C57BL6/FVB genetic background, originally obtained by Jackson Laboratories were maintained in our laboratory. Care of animals was in accord with University of Athens Institutional guidelines. The reporter αSMA-βGal mice have been described elsewhere (32). Wound healing assay in vivo was performed after administration of anesthesia (100 mg/kg ketamine, 10 mg/kg xylazine). Mice were shaved in the back, wiped with ethanol and wounds were cut using a biopsy punch (4 mm). The skin was grabbed at dorsal midline and placed over a cardboard backing on one side of the skin fold. The biopsy punch was pressed until both layers of the skin were punched and the cardboard was reached. Four wounds were performed per mouse, two on each side of the dorsal midline, at equal distance, so that the tension of the skin would be equal all over the mouse back and would not influence the contraction of the wounds. The experimental protocol was reviewed and approved by the University of Athens Animal Experimentation Committee. GHRH and JI-38 (100 nM) were applied twice daily in a volume of approximately 50 μl. At least 10 wounds for each of the control (vehicle, PBS), GHRH or JI-38 were observed. In order to avoid study variation due to the wound healing variability between different experimental animals, each mouse was its own control. For wound area measurements digital pictures of wounds were analyzed by the ImageJ (N1H) software. Wound size was monitored over time relative to a 4 mm diameter circular paper cutout placed next to the wound as previously described (38). For histology, 4-6 wounds per time point per group were analyzed. Similar results were obtained among different mice and histological sections for each group and representative are shown.
Tissue sections from mice wounds were de-paraffinized and rehydrated in distilled H2O. These sections were then stained in orcein (Sigma) 1% w/v in 96% ethanol for 30 min at room temperature and washed in distilled H2O. […]

Data set [5] relates to 4 mm circular skin wounds. Nature of the data set: Wound healing assay in vivo, 4 mm skin biopsy wounds, wound area. The settings on record: mice; for wound healing compared to controls: 100 nM applied twice daily to the wound. The method, then: as §4
In order to evaluate the effect of GHRH on wound healing in vivo, wild type mice were subjected to 4 mm skin biopsies and the healing of the inflicted wounds in the presence or absence of GHRH and JI-38 at 100 nM was observed daily. In order to avoid variation in the wound healing process between different experimental animals, a control wound was always included in each mouse, thus permitting paired analysis.

Data set [6] deals with focal adhesion kinase (FAK). The data set can be described thus: Immunoblot analysis of FAK expression in MEFs. The data set is classed as cell-based, mouse. The settings on record: 100 nM, 24 h, Western blot. On the procedure: as §3
(§5) αSMA is an actin isoform that confers tensional and contractile activity (25,26). […]

In data set [7] the test system is α-smooth muscle actin (αSMA). Nature of the data set: Immunoblot analysis of αSMA expression in MEFs. The data set is classed as cell-based, mouse. The method, then: as §3
αSMA is an actin isoform that confers tensional and contractile activity (25,26). Typically SMA is selectively expressed in smooth muscle cells of adult animals, but is induced in activated fibroblasts (myofibroblasts) during wound healing, within the stroma of many tumors, and in general under conditions where there is extensive tissue reorganization and regeneration (27,28). […] Of interest, this effect was significant at a concentration of 100 nM but not 500 nM of either peptide. A similar pattern of expression was found for focal adhesion kinase (FAK), an enzyme which plays a role in cell migration and invasion (29). The activation of αSMA in fibroblasts following GHRH treatment was confirmed in lung fibroblasts isolated from transgenic mice bearing a reporter β-galactosidase (βGal) transgene under the regulation of the αSMA promoter/enhancer (30). Cells from these mice display βGal positivity when αSMA expression is activated (30).

The subject of data set [8] is αSMA promoter-βGal reporter transgene. Nature of the data set: βGal staining of lung fibroblasts from αSMA promoter-βGal reporter transgenic mice. It is filed as cell-based. The settings on record: 100 nM and 500 nM, 24 h. The method, then: as §3, §5
The next data set relates to subcutaneous peptidases. The settings on record: cited from earlier work.
The next data set concerns pituitary GHRH receptor. The settings on record: subcutaneous administration; cited from earlier work.

As to hGHRH(1-29)NH2, the “proliferation of MEFs” value in the data set with MEFs [1] (100 nM) is listed as “stimulated proliferation”. For the same substance, the “proliferation of MEFs” value with MEFs [1] (500 nM) is given as “no considerable effect”. The “levels of SV1 expression” value with SV1 is given as “upregulated”. In the data set with MEFs [2] (100 nM), the “migration of MEFs in 8 μm-pore transwell system (figure legend)” value is reported as “significantly increased” and the “increase of migration through 8 μm-pore transwells compared to controls” value was “about 2.5 fold”. Moreover, in the data set with MEFs [2] (500 nM), the “stimulation of cell migration through transwells compared to controls” value is recorded as “about 2 fold”. The “migration of MEFs in scratch assay compared to controls” value in the data set on MEFs [3] was “considerably increased; also recorded: increased migration”. In data set [4], the “content of fibroblasts in wounds (histology) compared to controls” value was “increased content of fibroblasts; also recorded: considerable increase” and the “increase of fibroblast density in the wound area” value is reported as “about 80%”. In data set [4] (day 8, 100 nM twice daily), the “collagen fibers in the lamina propria, Van Gieson staining” value is “nearly normally arranged collagen fibers”; the “histology of epidermis, dermis and stroma” value was “almost normal with a diffuse mild inflammatory infiltration”; the “reformation of the covering epithelium” value is given as “almost complete”. The “wound healing compared to controls” value in [5] is “considerable acceleration”. For the same substance, in [5] (100 nM twice daily), the “day on which acceleration of wound healing was first evidenced” value came out at 3 days; the “potency histologically and macroscopically at equimolar concentrations” value is “more potent than 31-38”; the “time to nearly complete healing” value is reported as “about 10 days post-incision”. The FAK expression result in [6] was “induced”. The SMA expression entry in [7] (100 nM, 24 h, immunoblot) is given as “stimulated; also recorded: induced”. Besides, in data set [7] (500 nM, compared with 100 nM), the SMA expression entry is “less pronounced”.

On to “[Dat^1, Gln^8, Orn^12,21, Abu^15, Nle^27, Asp^28, Agm^29]hGH-RH(1-29)NH2 [JI-38]”, for which the “proliferation of MEFs” value in the data set on MEFs [1] (100 nM) and in the data set with MEFs [1] (500 nM) was “no considerable effect” throughout. Further, the “potency in transwell-based migration assay relative to GHRH” value in the data set on MEFs [2] is on record as “more potent than GHRH”. Also, the “migration of MEFs in 8 μm-pore transwell system (figure legend)” value in the data set on MEFs [2] (100 nM) and in the data set on MEFs [2] (500 nM) was “significantly increased” in each case. Moreover, the “increase of migration through 8 μm-pore transwells compared to controls” value with MEFs [2] (100 nM) is around 3 fold. Moreover, in the data set with MEFs [2] (500 nM), the “stimulation of cell migration through transwells compared to controls” value is “about 2 fold”. The “migration of MEFs in scratch assay compared to controls” value in the data set on MEFs [3] was “considerably increased”; in the data set on MEFs [3] (listed as 51-38), “increased migration”. Besides, in data set [4], the “content of fibroblasts in wounds (histology) compared to controls” value is “to a lesser extent; also recorded: considerable increase”. In addition, the “collagen fibers in the lamina propria, Van Gieson staining” value in data set [4] (day 8, 100 nM twice daily) was “could not be seen”. Also, in data set [4] (day 8, 100 nM twice daily), the “histology of epidermis, dermis and stroma” value is “dense and rich in fibroblasts”. Besides, in [4], the “increase of fibroblast density in the wound area” value is listed as around 40%. In addition, in [5], the “wound healing compared to controls” value is reported as “considerable acceleration”. Further, the “day on which acceleration of wound healing was first evidenced” value in data set [5] (100 nM twice daily) is 3 days. Further, the “time to nearly complete healing” value in data set [5] (100 nM twice daily) was “about 10 days post-incision”. Besides, the results for the “increase in fraction of βGal-positive (αSMA-lacZ positive) cells compared to untreated controls” value in [8] (listed as 31-38) and in data set [8] (listed as 51-38) were “about 3 fold” and around 3 fold, respectively. In addition, the FAK expression entry in data set [6] is listed as “induced”. In the data set with subcutaneous peptidases, the “stability against subcutaneous peptidases” value is “resistance to degradation by subcutaneous peptidases”. Besides, in the data set with pituitary GHRH receptor, the “potency relative to GHRH in in vivo growth hormone release assay” value is “much more potent than GHRH”. Further, the SMA expression entry in data set [7] (100 nM, 24 h, immunoblot) is given as “stimulated; also recorded: induced”; in data set [7] (500 nM, compared with 100 nM), “less pronounced”.
